Source: publication PMC3118614 (Biomedical chromatography : BMC, 2010)
Like-named read-outs stand apart in the source and are kept apart here.

Legend:
[1] = format: in vivo, olive baboons (Papio Anubis)
[2] = ref Rowland et al., 2007; cited from earlier work

O=C1Nc2c(C(=O)O)ccnc2N(C2CC2)c2ncccc21 [4-CANVP, nevirapine 4-carboxylic acid]
Cmax (maximum concentration) ([1]; baboon serum, single oral dose of NVP 5 mg/kg, solution formulation, n = 2, mean): 144.90 ± 22.31 ng/mL

Cc1cc(=O)[nH]c2c1NC(=O)c1cccnc1N2C1CC1 [2-OHNVP, 2-hydroxynevirapine]
metabolites detected in human plasma (metabolic profile, in words) [2]: major metabolites

O=C1Nc2c(CO)ccnc2N(C2CC2)c2ncccc21 [12-OHNVP]
ratio of the plasma level of 12-OHNVP and 4-CANVP ([1]; in vivo, 5 mg/kg): 0.21
ratio of the plasma level of 12-OHNVP and 4-CANVP ([1]; in vivo, 10 mg/kg): 1.3
Cmax (maximum concentration) ([1]; in vivo, po, 5 mg/kg): 31.38 ± 10.59 ng/mL
Cmax (maximum concentration) ([1]; in vivo, po, 10 mg/kg): 275.25 ± 126.07 ng/mL
Cmax (maximum concentration) ([1]; in vivo, po, 400 mg): 157.16 ± 7.06 ng/mL
Cmax (maximum concentration) ([1]; in vivo, po, 800 mg): 385.38 ± 346.21 ng/mL
metabolites detected in human plasma (metabolic profile, in words) [2]: major metabolites

Cc1c(O)cnc2c1NC(=O)c1cccnc1N2C1CC1 [3-OHNVP]
Cmax (maximum concentration) ([1]; in vivo, po, 5 mg/kg): 11.50 ± 3.63 ng/mL
Cmax (maximum concentration) ([1]; in vivo, po, 10 mg/kg): 19.69 ± 9.94 ng/mL
Cmax (maximum concentration) ([1]; in vivo, po, 400 mg): 16.53 ± 1.10 ng/mL
Cmax (maximum concentration) ([1]; in vivo, po, 800 mg): 72.85 ± 60.37 ng/mL
metabolites detected in human plasma (metabolic profile, in words) [2]: major metabolites

Cc1ccnc2c1NC(=O)c1cc(O)cnc1N2C1CC1 [8-OHNVP]
metabolites detected in human plasma (metabolic profile, in words) [2]: low plasma level
